According to the NIST ThermoML archive (doi:10.1021/je900333c):
± gives the expanded uncertainty stated by the source.

Assay: relative permittivity at zero frequency (dimensionless); mn = molality of the nth substance listed, in mol/kg
Details: 101 kPa, Liquid, dielectric constant meter

Structure (SMILES): NCC(=O)O [2-aminoacetic acid] + O
- relative permittivity at zero frequency (278.15 K, m1 = 0.1): 88.4 ± 0.2
- relative permittivity at zero frequency (278.15 K, m1 = 0.15): 89.5 ± 0.2
- relative permittivity at zero frequency (278.15 K, m1 = 0.2): 90.6 ± 0.2
- relative permittivity at zero frequency (278.15 K, m1 = 0.25): 91.6 ± 0.2
- relative permittivity at zero frequency (278.15 K, m1 = 0.3): 92.8 ± 0.2
- relative permittivity at zero frequency (283.15 K, m1 = 0.1): 86.4 ± 0.2
- relative permittivity at zero frequency (283.15 K, m1 = 0.15): 87.5 ± 0.2
- relative permittivity at zero frequency (283.15 K, m1 = 0.2): 88.6 ± 0.2
- relative permittivity at zero frequency (283.15 K, m1 = 0.25): 89.6 ± 0.2
- relative permittivity at zero frequency (283.15 K, m1 = 0.3): 90.7 ± 0.2
- relative permittivity at zero frequency (288.15 K, m1 = 0.1): 84.5 ± 0.2
- relative permittivity at zero frequency (288.15 K, m1 = 0.15): 85.6 ± 0.2
- relative permittivity at zero frequency (288.15 K, m1 = 0.2): 86.6 ± 0.2
- relative permittivity at zero frequency (288.15 K, m1 = 0.25): 87.6 ± 0.2
- relative permittivity at zero frequency (288.15 K, m1 = 0.3): 88.7 ± 0.2
- relative permittivity at zero frequency (293.15 K, m1 = 0.1): 82.6 ± 0.2
- relative permittivity at zero frequency (293.15 K, m1 = 0.15): 83.6 ± 0.2
- relative permittivity at zero frequency (293.15 K, m1 = 0.2): 84.6 ± 0.2
- relative permittivity at zero frequency (293.15 K, m1 = 0.25): 85.6 ± 0.2
- relative permittivity at zero frequency (293.15 K, m1 = 0.3): 86.5 ± 0.2
- relative permittivity at zero frequency (298.15 K, m1 = 0.1): 80.7 ± 0.2
- relative permittivity at zero frequency (298.15 K, m1 = 0.15): 81.7 ± 0.2
- relative permittivity at zero frequency (298.15 K, m1 = 0.2): 82.6 ± 0.2
- relative permittivity at zero frequency (298.15 K, m1 = 0.25): 83.5 ± 0.2
- relative permittivity at zero frequency (298.15 K, m1 = 0.3): 84.3 ± 0.2
- relative permittivity at zero frequency (303.15 K, m1 = 0.1): 78.8 ± 0.2
- relative permittivity at zero frequency (303.15 K, m1 = 0.15): 79.7 ± 0.2
- relative permittivity at zero frequency (303.15 K, m1 = 0.2): 80.6 ± 0.2
- relative permittivity at zero frequency (303.15 K, m1 = 0.25): 81.4 ± 0.2
- relative permittivity at zero frequency (303.15 K, m1 = 0.3): 82.1 ± 0.2
- relative permittivity at zero frequency (308.15 K, m1 = 0.1): 76.9 ± 0.2
- relative permittivity at zero frequency (308.15 K, m1 = 0.15): 77.8 ± 0.2
- relative permittivity at zero frequency (308.15 K, m1 = 0.2): 78.5 ± 0.2
- relative permittivity at zero frequency (308.15 K, m1 = 0.25): 79.2 ± 0.2
- relative permittivity at zero frequency (308.15 K, m1 = 0.3): 79.7 ± 0.2
- relative permittivity at zero frequency (313.15 K, m1 = 0.1): 75 ± 0.2
- relative permittivity at zero frequency (313.15 K, m1 = 0.15): 75.8 ± 0.2
- relative permittivity at zero frequency (313.15 K, m1 = 0.2): 76.4 ± 0.2
- relative permittivity at zero frequency (313.15 K, m1 = 0.25): 77 ± 0.2
- relative permittivity at zero frequency (313.15 K, m1 = 0.3): 77.2 ± 0.2
